For the assay, the target named is Sodium- and chloride-dependent glycine transporter 1 (Homo sapiens) (UniProt P48067). The assay can be described thus: PubChem AID 1794809. To be noted: HEK-293 SLC6A9 OE, FLIPR membrane potential dye.

Inconclusive results are not listed.

Sequence of Sodium- and chloride-dependent glycine transporter 1 (Homo sapiens) (P48067 whole entry, looked up): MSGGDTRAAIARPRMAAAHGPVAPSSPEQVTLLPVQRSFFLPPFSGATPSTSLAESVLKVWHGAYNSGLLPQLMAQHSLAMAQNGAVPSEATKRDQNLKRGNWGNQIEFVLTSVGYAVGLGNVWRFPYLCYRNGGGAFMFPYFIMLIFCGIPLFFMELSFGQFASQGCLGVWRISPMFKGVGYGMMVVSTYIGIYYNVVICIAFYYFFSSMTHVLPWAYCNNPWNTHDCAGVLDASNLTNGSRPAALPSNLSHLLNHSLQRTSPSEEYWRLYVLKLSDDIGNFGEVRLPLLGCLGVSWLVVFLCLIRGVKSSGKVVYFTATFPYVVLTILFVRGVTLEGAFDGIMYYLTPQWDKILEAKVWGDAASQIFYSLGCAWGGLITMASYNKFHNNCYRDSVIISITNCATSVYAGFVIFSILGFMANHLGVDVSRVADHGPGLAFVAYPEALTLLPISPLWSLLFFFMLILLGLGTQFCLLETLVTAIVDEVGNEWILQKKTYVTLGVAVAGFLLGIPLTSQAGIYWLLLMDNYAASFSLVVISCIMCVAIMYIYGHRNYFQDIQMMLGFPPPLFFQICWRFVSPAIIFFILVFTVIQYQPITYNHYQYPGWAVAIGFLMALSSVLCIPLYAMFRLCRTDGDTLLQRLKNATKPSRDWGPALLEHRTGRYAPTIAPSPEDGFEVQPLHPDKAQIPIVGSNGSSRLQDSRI

What is called EC50 is the concentration giving half of the maximal effect. `NCC(=O)O`: the EC50 is 106 µM.

(Values after PubChem BioAssay AID1794809.)
